The values below come from PMC11610669, “A Spectroscopic Study on the Amyloid‐β Interaction with Clicked Peptide‐Porphyrin Conjugates: a Vision Toward the Detection of Aβ Peptides in Aqueous Solution” (Chembiochem, 2024).

The target of data set [1] is T1, Aβ42 (Homo sapiens, UniProt P05067). Nature of the data set: Grating-Coupled Interferometry (GCI) binding to immobilized Aβ42. Conditions: GCI fit quality parameter. The protocol: The Grating‐Coupled Interferometry (GCI) is a widely used analytical technique for characterizing intermolecular interactions. It allows quantitative measurements of both the affinity and the kinetics of the binding events. This high sensitivity label‐free method was exploited to measure the interactions of Aβ42 with Cu‐Ph‐Pep , Ph‐Pep , and Zn‐Ph‐Pep (Figure 5S). Control experiments with pristine MCPTPyP and the peptide GPGKLVFF ( Pep ) were carried out for comparison. The calculated association and dissociation kinetic constants (kon and koff, respectively) and the thermodynamic binding constant (KD), are summarized in Table 1. The obtained values indicate that all the conjugates show good affinities with Aβ42. It is also clear from Table 1 that the peptide moiety is fundamental for the molecular recognition of the Aβ42 peptide.[48] […] Nevertheless, it is important to emphasize that the interaction with Aβ42 is primarily mediated by the peptide rather than by the porphyrin macrocycle. We next investigated whether these peptide derivatives could be employed as molecular probes for the detection of Aβ42 aggregated species. A new set of CD experiments was then carried out with Aβ42 at 20 μM both in the absence and in the presence of the porphyrin‐peptide conjugates at 1 : 1 molar ratio in the UV (195–350) and Visible (350–500) regions. […] The signal rapidly evolved toward the typical β‐sheet profile (already within 24 h) with a single minimum at 216 nm, an x‐axis intercept at 202 nm and a maximum shift at a wavelength 195 nm.[49] […] For the sake of comparison, the CD spectra of the porphyrin‐peptide conjugates at 20 μM were also recorded in the same experimental conditions, both in the far‐UV and Visible regions (Figure 6S).
T1 sequence (P05067 672-713 limits assumed): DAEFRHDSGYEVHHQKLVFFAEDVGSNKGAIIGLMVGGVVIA
The experiments were performed on a Creoptix WAVE system (Creoptix). Borate buffer (100 mM sodium borate pH 9.0, 1 M NaCl) was used for chip conditioning. Aβ42 peptide (20 μg/ml in Na Acetate pH 4.5) was immobilized on 4PCH WAVE chips (quasiplanar polycarboxylate surface; Creoptix) according to the manufacturer instructions at a final density of 1910±40 pg/mm^2. Single‐cycle sequential injections of dilution series for each Porphyrin‐Peptide conjugates in running buffer (PBS, 0.005 % Tween 20, 1 % DMSO, 0.2 mg/ml BSA) were performed at 25 °C, using a flow rate of 100 μl/min. In details, for the conjugate Cu‐Ph‐Pep , 1 : 2 dilution series starting from 200 μM were injected for 10 s association time, 45 s dissociation time, followed by a dissociation time of 600 s for the last higher concentration injection. Finally, for the conjugates Ph‐Pep and Zn‐Ph‐Pep , 1 : 2 dilution series starting from 50 μM and 100 uM, respectively, were injected for 30 s association time, 45 s dissociation time, followed by a dissociation time of 600 s for the last higher concentration injection. Blank injections were used for double referencing and a DMSO calibration curve for bulk correction. Analysis and correction of the obtained data were performed using the Creoptix WAVE control software (correction applied: X and Y offset; DMSO calibration; double referencing). Mass transport binding models with bulk correction were used to fit all experiments. All the experiments have been performed at least in triplicate.
Figure 5S. Quantitative binding kinetics of Aβ42 vs a) MCPTPyP; b) Cu-Ph-Pep; c) Ph-Pep; d) Zn-Ph-Pep; and e) Pep measured by GCI. All curves were blank subtracted. Experiments were performed in triplicate. All the quality assessments (i.e., χ2 shown in Table 1 of the main text , parameter errors, and residual plots were acceptable; the sensorgrams had sufficient curvatures an d the kinetic constant k off were within the measurable range) were fulfilled. Descriptive Statistical Analysis was employed to calculate the mean of the obtained values of k on, koff and KD as a measure of central tendency and standard deviations of the former values were computed as a measure of dispersion.
Figure 6S. […]

Data set [2] in a line: UV-Vis self-aggregation of the conjugates. Type of data set: physicochemical. The settings on record: UV-Vis 300–650 nm, 5 μM, 10 mM phosphate buffer pH 7.4, room temperature, 0–120 h. The protocol:
We first studied the effects of peptide conjugation on the porphyrin chromophore, by UV‐Vis spectra in the region between 300–650 nm. The spectra were recorded using a solution of 5 μM Porphyrin‐peptide conjugate in 10 mM phosphate buffer pH 7.4. The UV‐Vis profile of the porphyrin precursor MCPTPyP, recorded at the same concentration, is also shown for the sake of comparison (Figure 1).
(§1) Peptide conjugation influences the spectral features of the porphyrin chromophore as evidenced by the red shift in the absorption maximum in the region of the Soret band region. The Q bands are also affected, particularly in the Cu‐Ph‐Pep and Zn‐Ph‐Pep compounds (Figure 1). In this case the presence of a metal ion within the porphyrin's core might contribute to the observed spectral profile of these compounds. […] The fluorescence spectra of the investigated systems were also acquired in view of the interaction of the studied conjugates with cells (see below biological section).[41] The fluorescence spectra were recorded with the photoexcitation at 425±5 nm, in 10 mM phosphate buffer pH 7.4 and 5 μM concentration. The emission spectrum of the porphyrin precursor MCPTPyP ( Ph ) was also obtained for the sake of comparison.
(§2) Spectra were recorded on a Jasco V‐670 Spectrophotometer at room temperature. All measurements were performed in the 300–650 nm wavelength region, in a 10 mM phosphate buffer solution at pH 7.4 using a 1 cm path length quartz cell. The spectra of all the peptide‐porphyrin conjugates, either in the absence or in the presence of equimolar Aβ42, were acquired at 5 μM. In some cases, the same sample solution was used to run the CD spectra. The final concentrations of Aβ42 and peptide conjugates were 5 μM (1 : 1 molar ratio).

Data set [3] can be described thus: CD control: β-sheet propensity of the conjugates alone. Type of data set: physicochemical. The settings on record: 10 mM phosphate buffer pH 7.4, room temperature, up to 120 h. The protocol:
(§3) The UV‐Vis spectra of porphyrin‐peptide conjugates (5 μM) were recorded in the presence of an equimolar ration of Aβ42 monomers at 0, 24, 48 and 120 h (Figure 2S). […] Therefore, the interaction of the peptide‐porphyrin conjugates with Aβ was further studied using CD spectroscopy. The Aβ42 aggregation process was monitored either in the absence or in the presence of an equimolar amount of the conjugated peptides. A series of CD control experiments were preventively carried out to assess the propensity of the porphyrin‐peptide conjugates to adopt a β‐sheet conformation. The corresponding CD curves are shown in the supplementary material (Figure 3S). […] We then evaluated the ability of the porphyrin‐peptide conjugates to affect the Aβ42’s aggregation process. This was accomplished by running a series of CD experiments on the binary systems in the same experimental conditions as the control CD measurements. A 5 μM Aβ42 sample was used as a positive control of the aggregation process (Figure 3, panel a). In this case, the curve profiles indicate that at 0 h, Aβ42 is predominantly in the random coil conformation, as evidenced by the negative ellipticity around 200 nm. […] The typical dichroic profile characterized by a negative ellipticity at λ=222 nm and a positive band at λ=200 is indicative of this event (Figure 3, panel a).
Spectra were recorded on a J‐810 spectrometer (Jasco, Japan) under a constant flow of N2 at room temperature. The CD measurements were performed in the wavelength regions (190–260 nm, 195–350 nm and 350–500 nm) using a 1 cm path length quartz cell. All aggregation kinetics were monitored up to 120 hours. The CD spectra were recorded for Aβ42 (5 μM and 20 μM) monomer in the absence or in the presence of porphyrin‐peptide conjugates (5 μM and 20 μM for the 1 : 1 molar ratios). Monomerized samples of Aβ42 (5 μM and 20 μM) were solubilized in 50 μL of NaOH 20 mM (2,5 %) and after were diluted with 1950 μL of 10 mM phosphate buffer at pH 7.4 pure or containing the solubilized conjugates.

The target of data set [4] is T1, Aβ42. Nature of the data set: UV-Vis of conjugates with equimolar Aβ42. Format: biochemical. Conditions: 5 μM conjugate, equimolar Aβ42, 10 mM phosphate buffer pH 7.4, 0, 24, 48 and 120 h. As for the experimental part:
as §3, §2

The nature of data set [5]: Porphyrin fluorescence in buffer. Format: physicochemical. Conditions: 5 μM, 10 mM phosphate buffer pH 7.4, excitation 425 nm; vs pristine MCPTPyP.
From the text: as §1
Spectra were recorded on a Horiba Fluoro‐max‐4 spectrofluorometer from 440–800 nm in 1 nm steps, at an excitation wavelength λexc=425 nm, at room temperature. The final fluorescence spectra represent averages of at least three measurements. Bandwidths of 5 nm for both excitation and emission were used. The sample of the compound used to record absorption spectra were the same as those for the CD spectra.

Another data set concerns full-length Aβ. Conditions: ref [44], [45]; cited from earlier work. An excerpt: In the present work we employed UV‐Vis, CD spectroscopy and Bis‐Ans fluorescence to explore the molecular processes underlying the interactions occurring between Aβ and the porphyrin‐peptide conjugates.

“Also recorded” adds a separate entry of the source. Square brackets hold non-standard residues; d marks the D form. Peptide text beside a SMILES is read from it. Lys(N3) = [N-]=[N+]=NCCCC[C@H](N)C(=O)O

Regarding `COC(=O)[C@H](Cc1cn(CCCC[C@H](NC(=O)CNC(C)=O)C(=O)N2CCC[C@H]2C(=O)NCC(=O)N[C@@H](CCCCN)C(=O)N[C@@H](CC(C)C)C(=O)N[C@H](C(=O)N[C@@H](Cc2ccccc2)C(=O)N[C@@H](Cc2ccccc2)C(N)=O)C(C)C)nn1)NC(=O)c1ccc(-c2c3nc(c(-c4cc[n+](C)cc4)c4ccc([nH]4)c(-c4cc[n+](C)cc4)c4nc(c(-c5cc[n+](C)cc5)c5ccc2[nH]5)C=C4)C=C3)cc1` [Cu‐Ph‐Pep], the “χ^2 (average of the squared residuals, fitting confidence)” value at Aβ42 [1] is reported as 0.76±0.07. Further, the self-aggregation entry in data set [2] is “absence of significant self‐aggregation phenomena”. Also, the “propensity to adopt β-sheet conformation (conjugate alone)” value in data set [3] is given as “can fairly adopt β‐sheet conformation over time”. For the same compound, the “UV-Vis spectral change in presence of Aβ42” value at Aβ42 [4] was “minor variations in the spectral profiles; also recorded: observable absorbance diminution”. Also, the fluorescence emission intensity result in data set [5] is “not fluorescent”.
For the compound `CC(=O)NCC(=O)N[C@@H](CCCCN=[N+]=[N-])C(=O)N1CCC[C@H]1C(=O)NCC(=O)N[C@@H](CCCCN)C(=O)N[C@@H](CC(C)C)C(=O)N[C@H](C(=O)N[C@@H](Cc1ccccc1)C(=O)N[C@@H](Cc1ccccc1)C(N)=O)C(C)C` [Pep] (Ac-G[Lys(N3)]PGKLVFF-NH2), the “χ^2 (average of the squared residuals, fitting confidence)” value at Aβ42 [1] amounted to 0.79±0.08.
Take `COC(=O)[C@H](Cc1cn(CCCC[C@H](NC(=O)CNC(C)=O)C(=O)N2CCC[C@H]2C(=O)NCC(=O)N[C@@H](CCCCN)C(=O)N[C@@H](CC(C)C)C(=O)N[C@H](C(=O)N[C@@H](Cc2ccccc2)C(=O)N[C@@H](Cc2ccccc2)C(N)=O)C(C)C)nn1)NC(=O)c1ccc(-c2c3nc(c(-c4cc[n+](C)cc4)c4ccc([nH]4)c(-c4cc[n+](C)cc4)c4nc(c(-c5cc[n+](C)cc5)c5ccc2[nH]5)C=C4)C=C3)cc1` [Ph‐Pep]: the “χ^2 (average of the squared residuals, fitting confidence)” value at Aβ42 [1] is 0.71±0.04. Also, the self-aggregation result in data set [2] is “absence of significant self‐aggregation phenomena”. Also, the “propensity to adopt β-sheet conformation (conjugate alone)” value in data set [3] is on record as “can fairly adopt β‐sheet conformation over time”. Besides, the “UV-Vis spectral change in presence of Aβ42” value at Aβ42 [4] is “minor variations in the spectral profiles”. For the same compound, in data set [5], the fluorescence emission intensity entry is “somewhat decreased”.
On to “KLVFF [well-known hydrophobic core Aβ16–20 (KLVFF)]”, for which the “recognition of full-length Aβ” value in the data set on full-length Aβ was “can recognize and co‐assemble with full‐length Aβ”.
